ChEMBL document CHEMBL5154856, “Targeting the tumor microenvironment by an enzyme-responsive prodrug of tubulin destabilizer for triple-negative breast cancer therapy with high safety” (Eur J Med Chem, 2022)
One block for each compound: values may come before it. Calls of active or inactive are those of the source. No cut-off for these calls is given here.

Columns and labels:
[1] = Chemical stability of compound at pH 7.4 in bovine serum at 1 mg incubated for 48 hrs by HPLC analysis; format: ADME, cell-free; conditions: cattle, pH 7.4, 48 h
[2] = Chemical stability of compound at pH 7.4 in PBS buffer at 1 mg incubated for 48 hrs by HPLC analysis; format: physicochemical; conditions: pH 7.4, 48 h
[3] = Stability of compound in phosphate buffer at pH 7.4 assessed as Escherichia coli beta-glucuronidase mediated compound cleavage at 1.2 mg measured after 2 hrs by HPLC analysis; format: ADME; conditions: pH 7.4, 2 h
[4] = Toxicity in nude mouse assessed as effect on eosinophil level at 3.75 mg/kg, iv administered qd for 3 days (reference value: 6 %); format: organism-based; conditions: in vivo, 72 h, time 3 day
[5] = Toxicity in nude mouse assessed as effect on monocytes level at 3.75 mg/kg, iv administered qd for 3 days (reference value: 37.10 %); format: organism-based; conditions: in vivo, 72 h, time 3 day
[6] = Toxicity in nude mouse assessed as effect on globulin level in serum at 3.75 mg/kg, iv administered qd for 3 days (reference value: 16.1 g/L); format: organism-based; conditions: in vivo, 72 h, time 3 day
HeLa [7] = assay: Antiproliferative activity against human HeLa cells assessed as inhibition of cell growth incubated for 48 hrs by MTT assay; format: functional, cell-based
[8] = Cardiotoxicity in nude mouse assessed as prolonged QT intervals at 5 mg/kg, iv administered once daily for 3 days by ECG analysis; format: toxicity, organism-based; conditions: in vivo, 72 h, time 3 day
[9] = Acute toxicity in BALB/c mouse assessed as animal survival at 12.5 mg/kg, iv administered as single dose measured after 14 days; format: organism-based; conditions: in vivo, time 14 day
[10] = Toxicity in nude mouse assessed as effect on alanine aminotransferase level in serum at 3.75 mg/kg, iv administered qd for 3 days (reference value: 308 U/L); format: organism-based; conditions: in vivo, 72 h, time 3 day
[11] = Toxicity in nude mouse assessed as effect on white blood cell count at 3.75 mg/kg, iv administered qd for 3 days (reference value: 0.02 10^9/L); format: organism-based; conditions: in vivo, 72 h, time 3 day
[12] = Cardiotoxicity in nude mouse assessed as abnormal spikes at 5 mg/kg, iv administered once daily for 3 days by ECG analysis; format: toxicity, organism-based; conditions: in vivo, 72 h, time 3 day
[13] = Toxicity in nude mouse assessed as effect on aspartate aminotransferase level in serum at 3.75 mg/kg, iv administered qd for 3 days (reference value: 424 U/L); format: organism-based; conditions: in vivo, 72 h, time 3 day
[14] = Toxicity in nude mouse assessed as effect on mean corpuscular hemoglobin concentration at 3.75 mg/kg, iv administered qd for 3 days (reference value: 473 g/L); format: organism-based; conditions: in vivo, 72 h, time 3 day
[15] = Acute toxicity in BALB/c mouse assessed as animal survival at 50 mg/kg, iv administered as single dose measured after 14 days; format: organism-based; conditions: in vivo, time 14 day
[16] = Toxicity in nude mouse xenografted with human MDA-MB-231 cells assessed as pathological changes in spleen at 3.75 mg/kg, iv administered every 2 days for 14 days by H and E staining based assay; format: organism-based; conditions: in vivo, 336 h, time 14 day
[17] = Toxicity in nude mouse assessed as effect on total protein level in serum at 3.75 mg/kg, iv administered qd for 3 days (reference value: 47.3 g/L); format: organism-based; conditions: in vivo, 72 h, time 3 day
[18] = Toxicity in nude mouse assessed as effect on albumin level in serum at 3.75 mg/kg, iv administered qd for 3 days (reference value: 31.2 g/L); format: organism-based; conditions: in vivo, 72 h, time 3 day
[19] = Toxicity in nude mouse assessed as effect on basophil level at 3.75 mg/kg, iv administered qd for 3 days (reference value: 11.70 %); format: organism-based; conditions: in vivo, 72 h, time 3 day
[20] = Toxicity in nude mouse assessed as effect on neutrophil level at 3.75 mg/kg, iv administered qd for 3 days (reference value: 7.40 %); format: organism-based; conditions: in vivo, 72 h, time 3 day
[21] = Toxicity in nude mouse assessed as effect on alkaline phosphatase level in serum at 3.75 mg/kg, iv administered qd for 3 days (reference value: 66 U/L); format: organism-based; conditions: in vivo, 72 h, time 3 day
[22] = Toxicity in nude mouse assessed as effect on lymphocyte level at 3.75 mg/kg, iv administered qd for 3 days (reference value: 60.90 %); format: organism-based; conditions: in vivo, 72 h, time 3 day
[23] = Acute toxicity in BALB/c mouse assessed as lethal dose administered intravenously as single dose and measured after 14 days; conditions: in vivo, route iv, time 14 day
[24] = Toxicity in nude mouse assessed as effect on platelet count at 3.75 mg/kg, iv administered qd for 3 days (reference value: 21 10^9/L); format: organism-based; conditions: in vivo, 72 h, time 3 day
MDA-MB-231 [25] = assay: Antitumor activity against mouse xenografted with human MDA-MB-231 cells assessed as increase in tumor necrosis area at 3.75 mg/kg, iv administered every 2 days for 14 days by H and E staining based assay; format: functional, organism-based; conditions: time 14.0 day
[26] = Toxicity in nude mouse assessed as effect on platelet distribution width at 3.75 mg/kg, iv administered qd for 3 days (reference value: 20.2); format: organism-based; conditions: in vivo, 72 h, time 3 day
[27] = Toxicity in nude mouse assessed as animal death at 5 mg/kg, iv administered 3 consecutive dosages; format: organism-based; conditions: in vivo
[28] = Acute toxicity in BALB/c mouse assessed as animal survival at 70 mg/kg, iv administered as single dose measured after 14 days; format: organism-based; conditions: in vivo, time 14 day
MDA-MB-231 [29] = assay: Antiproliferative activity against human MDA-MB-231 cells assessed as inhibition of cell growth incubated for 48 hrs by MTT assay; format: functional, cell-based; conditions: MDA-MB-231, 48 h
[30] = Toxicity in nude mouse xenografted with human MDA-MB-231 cells assessed as pathological changes in kidney at 3.75 mg/kg, iv administered every 2 days for 14 days by H and E staining based assay; format: organism-based; conditions: in vivo, 336 h, time 14 day
[31] = Toxicity in nude mouse assessed as effect on gamma-glutamyl transpeptidase level in serum at 3.75 mg/kg, iv administered qd for 3 days (Rvb < 2 U/L); format: organism-based; conditions: in vivo, 72 h, time 3 day
[32] = Acute toxicity in BALB/c mouse assessed as animal survival at 100 mg/kg, iv administered as single dose measured after 14 days; format: organism-based; conditions: in vivo, time 14 day
[33] = Toxicity in nude mouse xenografted with human MDA-MB-231 cells assessed as pathological changes in liver at 3.75 mg/kg, iv administered every 2 days for 14 days by H and E staining based assay; format: organism-based; conditions: in vivo, 336 h, time 14 day
[34] = Toxicity in nude mouse assessed as effect on mean corpuscular hemoglobin level at 3.75 mg/kg, iv administered qd for 3 days (reference value: 22.3 pg); format: organism-based; conditions: in vivo, 72 h, time 3 day
[35] = Acute toxicity in BALB/c mouse assessed as animal survival at 25 mg/kg, iv administered as single dose measured after 14 days; format: organism-based; conditions: in vivo, time 14 day
MCF7 [36] = assay: Antiproliferative activity against human MCF7 cells assessed as inhibition of cell growth incubated for 48 hrs by MTT assay; format: functional, cell-based; conditions: MCF7, 48 h
[37] = Toxicity in nude mouse assessed as effect on total bilirubin level in serum at 3.75 mg/kg, iv administered qd for 3 days (reference value: 3.3 micromol/L); format: organism-based; conditions: in vivo, 72 h, time 3 day
[38] = Metabolic stability in rat liver microsomes assessed as half life at 10 mM measured up to 60 mins in presence of NADPH by LC-MS/MS analysis; format: ADME, Microsome
HeLa [39] = assay: Antiproliferative activity against human HeLa cells assessed as inhibition of cell growth incubated for 48 hrs in absence of beta-glucuronidase by MTT assay; format: functional, cell-based
[40] = Metabolic stability in rat liver microsomes assessed as intrinsic clearance in liver at 10 mM measured up to 60 mins in presence of NADPH by LC-MS/MS analysis; format: ADME, Microsome; conditions: read-out: CLH
SK-OV-3 [41] = assay: Antiproliferative activity against human SK-OV-3 cells assessed as inhibition of cell growth incubated for 48 hrs in presence of beta-glucuronidase by MTT assay; format: functional, cell-based; conditions: SK-OV-3, 48 h
[42] = Aqueous solubility of compound in PBS at pH 7.4 at 1 mg incubated for 10 mins by HPLC analysis; format: physicochemical
HeLa [43] = assay: Antiproliferative activity against human HeLa cells assessed as inhibition of cell growth incubated for 48 hrs in presence of beta-glucuronidase by MTT assay; format: functional, cell-based
SK-OV-3 [44] = assay: Antiproliferative activity against human SK-OV-3 cells assessed as inhibition of cell growth incubated for 48 hrs in absence of beta-glucuronidase by MTT assay; format: functional, cell-based; conditions: SK-OV-3, 48 h
[45] = Metabolic stability in rat liver microsomes assessed as intrinsic clearance in microsomes at 10 mM measured up to 60 mins in presence of NADPH by LC-MS/MS analysis; format: ADME, Microsome; conditions: read-out: CLH
MCF7 [46] = assay: Antiproliferative activity against human MCF7 cells assessed as inhibition of cell growth incubated for 48 hrs in presence of beta-glucuronidase by MTT assay; format: functional, cell-based; conditions: MCF7, 48 h
MCF7 [47] = assay: Antiproliferative activity against human MCF7 cells assessed as inhibition of cell growth incubated for 48 hrs in absence of beta-glucuronidase by MTT assay; format: functional, cell-based; conditions: MCF7, 48 h
[48] = Metabolic stability in rat liver microsomes assessed as parent compound remaining at 10 mM measured up to 60 mins in presence of NADPH by LC-MS/MS analysis; format: ADME, Microsome; conditions: read-out: Stability
MDA-MB-231 [49] = assay: Antiproliferative activity against human MDA-MB-231 cells assessed as inhibition of cell growth incubated for 48 hrs in presence of beta-glucuronidase by MTT assay; format: functional, cell-based; conditions: MDA-MB-231, 48 h
MDA-MB-231 [50] = assay: Antiproliferative activity against human MDA-MB-231 cells assessed as inhibition of cell growth incubated for 48 hrs in absence of beta-glucuronidase by MTT assay; format: functional, cell-based; conditions: MDA-MB-231, 48 h
[51] = Stability of compound in phosphate buffer at pH 7.4 assessed as Escherichia coli beta-glucuronidase mediated compound cleavage at 1.2 mg measured after 10 mins by HPLC analysis; format: ADME; conditions: pH 7.4, 10 min
SK-OV-3 [52] = assay: cells; conditions: Homo sapiens, SK-OV-3, 48 h
Description: Antiproliferative activity against human SK-OV-3 cells assessed as inhibition of cell growth incubated for 48 hrs by MTT assay

Structure (SMILES): COc1ccc([C@H]2[C@H](CO)C(=O)N2c2cc(OC)c(OC)c(OC)c2)cc1OCc1ccc(O[C@@H]2O[C@H](C(=O)O)[C@@H](O)[C@H](O)[C@H]2O)c([N+](=O)[O-])c1
Stability [1]: Stable
Stability [2]: Stable
Stability [3]: Unstable

Structure (SMILES): COc1ccc([C@H]2[C@H](CO)C(=O)N2c2cc(OC)c(OC)c(OC)c2)cc1O (racemic)
Activity [4]: 18.2%
Activity [5]: 7.7%
Activity [6]: 15.7 g/L
IC50 (HeLa [7]): 5.9 nM
Activity [8]: Toxic
survival at 336 h [9]: 100%
Activity [10]: 196 U/L
Activity [11]: 0.05 10^9/L
Activity [12]: Toxic
Activity [13]: 503 U/L
Activity [14]: 488 g/L
survival at 336 h [15]: 87.5%
Activity [16]: Non-Toxic
Activity [17]: 48.8 g/L
Activity [18]: 33.1 g/L
Activity [19]: 4.7%
Activity [20]: 7.4%
Activity [21]: 142 U/L
Activity [22]: 66.7%
LD50 at 336 h [23]: 65 mg/kg
Activity [24]: 99 10^9/L
Activity (MDA-MB-231 [25]): Active
Activity [26]: 18.5
Activity [27]: Toxic
survival at 336 h [28]: 37.5%
IC50 (MDA-MB-231 [29]): 11.9 nM
Activity [30]: Non-Toxic
Activity [31]: < 2 U/L
survival at 336 h [32]: 0%
Activity [33]: Non-Toxic
Activity [34]: 23.5 pg
survival at 336 h [35]: 100%
IC50 (MCF7 [36]): 14.8 nM
Activity [37]: 6.3 µmol/L

Results, then the compound that gave them:

Stability [1]: Stable
half-life [38]: > 2.42 h
IC50 (HeLa [39]): > 50000 nM
Stability [2]: Stable
CLint scaled [40]: < 38 mL/min/kg
IC50 (SK-OV-3 [41]): 22.6 nM
solubility at 10 min [42]: > 40 mg/mL
IC50 (HeLa [43]): 14.3 nM
IC50 (SK-OV-3 [44]): > 50000 nM
microsomal CLint [45]: < 9.6 µL/min/mg
IC50 (MCF7 [46]): 15.5 nM
IC50 (MCF7 [47]): > 50000 nM
remaining at 1 h [48]: 84.6%
IC50 (MDA-MB-231 [49]): 3.5 nM
IC50 (MDA-MB-231 [50]): > 50000 nM
Stability [51]: Unstable
Structure (SMILES): COc1ccc([C@H]2[C@H](CF)C(=O)N2c2cc(OC)c(OC)c(OC)c2)cc1OCc1ccc(O[C@@H]2O[C@H](C(=O)O)[C@@H](O)[C@H](O)[C@H]2O)cc1

Stability [1]: Stable
Stability [2]: Stable
Stability [3]: Unstable
Structure (SMILES): COc1cc(C(=O)c2c(N)oc3c(OCc4ccc(O[C@@H]5O[C@H](C(=O)O)[C@@H](O)[C@H](O)[C@H]5O)cc4)c(OC)ccc23)cc(OC)c1OC

IC50 (HeLa [7]): 6.7 nM
IC50 (SK-OV-3 [52]): 3.8 nM
IC50 (MDA-MB-231 [29]): 1.1 nM
IC50 (MCF7 [36]): 12.5 nM
Structure (SMILES): COc1ccc([C@H]2[C@H](CF)C(=O)N2c2cc(OC)c(OC)c(OC)c2)cc1O
